Laboratory results as given in patent US20210188856A1, “CRYSTAL FORM OF HYDROCHLORIDE OF PYRAZOLOHETEROARYL DERIVATIVE AND PREPARATION METHOD” (JIANGSU HENGRUI MEDICINE CO., LTD., priority 2018, published 2021).
Like-named read-outs stand apart in the source and are kept apart here.

Experiments:
CYP2D6 = molecular target: T1, CYP2D6 (Homo sapiens, UniProt P10635); test: Inhibition of CYP2D6 in human liver microsome; format: in vitro ADME
T1 construct: CYP2D6 in human liver microsome; tissue Corning Gentest; host or cells: human liver microsomes
Description: The effect of the compound represented by formula (I) on the enzyme activity of CYP2D6 in human liver microsome was determined by the following experimental method:
(§1) 100 mM PBS buffer was formulated, which was then used to formulate 2.5 mg/mL microsome solution and 5 mM NADPH solution. The 5× concentration of the compound working solution was diluted with PBS gradient (150, 50, 15, 5, 1.5, 0.15, 0.015, 0 μM). The 5× concentration of quinidine working solution was diluted with PBS gradient (150, 50, 15, 5, 1.5, 0.15, 0.015, 0 μM). Dextromethorphan working solution was diluted with PBS to a concentration of 50 μM.
(§2) 20 μL of the 2.5 mg/mL microsome solution, 20 μL of the 50 μM testosterone working solution, 20 μL of MgCl2 solution and 20 μL of the compound working solution (150, 50, 15, 5, 1.5, 0.15, 0.015, 0 μM, different reaction systems for each concentration) were taken respectively and mixed well. For the positive control group, the compound was replaced with the same concentration of quinidine. The mixture together with the 5 mM NADPH solution was pre-incubated at 37° C. for 5 minutes. After 5 minutes, 20 μL of NADPH was added to each well, the reaction was started and incubated for 30 minutes. […] 80 μL of the supernatant was taken and analyzed by LC-MS/MS.
The data were calculated by Graphpad Prism to obtain the IC50 value of the compound on the metabolite site of CYP2D6.

[1] = Solubility in PBS 7.4 and FaSSIF solutions; format: physicochemical; settings: thermodynamic from solid
Excerpt: The amorphous samples of the compound represented by formula (I) and the crystal form I samples of the dihydrochloride salt of the compound represented by formula (I) obtained in the present disclosure were further evaluated for solubility in PBS 7.4 and FaSSIF solutions.

CYP3A4 = molecular target: T2, CYP3A4 (Homo sapiens, UniProt P08684); test: Inhibition of midazolam metabolite site of CYP3A4 in human liver microsome; format: in vitro ADME
T2 construct: CYP3A4 in human liver microsome; tissue Corning Gentest; host or cells: human liver microsomes
Description: The effect of the compound represented by formula (I) on the enzyme activity of midazolam metabolite site of CYP3A4 in human liver microsome was determined by the following experimental method:
as §1, with “ketoconazole” for “quinidine”
as §2, with “[…],” for “20 μL of the 50 μM testosterone working solution,”, “ketoconazole.” for “quinidine.”
The data was calculated by Graphpad Prism to obtain the IC50 value of the compound on the midazolam metabolite site of CYP3A4.

Log D = format: physicochemical

T1 sequence (P10635 whole entry): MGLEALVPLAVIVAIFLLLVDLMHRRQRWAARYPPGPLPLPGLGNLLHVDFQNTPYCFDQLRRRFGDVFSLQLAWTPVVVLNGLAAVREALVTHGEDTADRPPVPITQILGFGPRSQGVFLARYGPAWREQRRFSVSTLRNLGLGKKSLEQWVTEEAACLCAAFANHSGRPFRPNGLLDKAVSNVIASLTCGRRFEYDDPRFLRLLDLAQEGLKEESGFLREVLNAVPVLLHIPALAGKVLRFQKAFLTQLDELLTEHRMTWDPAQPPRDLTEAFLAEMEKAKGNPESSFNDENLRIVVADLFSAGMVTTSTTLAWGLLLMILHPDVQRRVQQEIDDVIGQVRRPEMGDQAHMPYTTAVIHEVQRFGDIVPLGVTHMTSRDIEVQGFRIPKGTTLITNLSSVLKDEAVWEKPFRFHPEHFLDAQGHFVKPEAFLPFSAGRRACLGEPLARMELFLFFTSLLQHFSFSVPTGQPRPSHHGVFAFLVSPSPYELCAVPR
T2 sequence (P08684 whole entry): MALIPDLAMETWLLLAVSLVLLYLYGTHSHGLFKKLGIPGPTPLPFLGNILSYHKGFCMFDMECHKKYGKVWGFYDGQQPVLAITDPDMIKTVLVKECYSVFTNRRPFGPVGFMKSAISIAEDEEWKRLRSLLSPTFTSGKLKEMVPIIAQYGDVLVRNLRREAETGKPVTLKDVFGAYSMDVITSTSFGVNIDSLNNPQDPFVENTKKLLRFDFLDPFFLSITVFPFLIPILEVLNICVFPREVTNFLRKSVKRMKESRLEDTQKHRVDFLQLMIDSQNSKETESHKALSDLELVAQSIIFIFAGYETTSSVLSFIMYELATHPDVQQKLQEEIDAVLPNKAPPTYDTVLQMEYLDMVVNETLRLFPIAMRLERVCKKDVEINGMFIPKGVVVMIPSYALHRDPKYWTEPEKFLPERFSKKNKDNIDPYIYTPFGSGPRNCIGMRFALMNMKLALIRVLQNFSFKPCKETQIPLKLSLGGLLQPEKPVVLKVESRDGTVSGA

For `CCCCOc1nc(N)c2cnn(Cc3ccc(CN4CCCC4)cc3)c2n1` [compound represented by formula (I), 6-Butoxy-1-(4-(pyrrolidin-1-ylmethyl)benzyl)-1H-pyrazolo[3,4-d]pyrimidin-4-amine], the “inhibitory effect against CYP2D6 (in words)” value (CYP2D6) was “no inhibitory effect”, the IC50 (CYP2D6; dextromethorphan probe) was > 30 µM and the solubility ([1]; FaSSIF solution, fassif, read-out: FasSIF Solubility) was 1090 µg/mL. For the same molecule, the solubility ([1]; PBS 7.4, pH 7.4, aqueous buffer, read-out: PBS 7.4 Solubility) was 30 µg/mL, the “inhibitory effect on midazolam metabolic site of CYP3A4 (in words)” value (CYP3A4) was “no inhibitory effect” and the IC50 (CYP3A4; midazolam probe) was 14 µM. For the same molecule, the “Log D” value (Log D) was 1.21.
